Experimental data taken from the NIST ThermoML archive (doi:10.1016/j.fluid.2004.11.021).

Test: xn = mol fraction of the nth substance listed
Conditions: Fluid (supercritical or subcritical phases)

[N-]=[N+]=O [nitrous oxide] + FC(F)F
isochoric method
Conditions	molar volume [m3/mol]
253.03 K, 1464.8 kPa, x1 = 0.1116	0.001035
253.09 K, 1627.2 kPa, x1 = 0.4162	0.000978
258 K, 1541.9 kPa, x1 = 0.1116	0.001035
258.06 K, 1905.9 kPa, x1 = 0.563	0.000867
258.08 K, 1718.9 kPa, x1 = 0.4162	0.000978
258.09 K, 1832.3 kPa, x1 = 0.2888	0.000828
262.96 K, 1968.2 kPa, x1 = 0.563	0.000867
263.06 K, 1593.9 kPa, x1 = 0.1116	0.001035
263.06 K, 1774.4 kPa, x1 = 0.4162	0.000979
263.08 K, 1926.6 kPa, x1 = 0.2888	0.000829
267.94 K, 2030.3 kPa, x1 = 0.563	0.000867
268 K, 1644.1 kPa, x1 = 0.1116	0.001035
268.04 K, 1829.1 kPa, x1 = 0.4162	0.000979
268.04 K, 1991.7 kPa, x1 = 0.2888	0.000829
268.04 K, 2663.9 kPa, x1 = 0.6362	0.000591
272.9 K, 1693.3 kPa, x1 = 0.1116	0.001035
272.93 K, 2055.2 kPa, x1 = 0.2888	0.000829
272.95 K, 2091.7 kPa, x1 = 0.563	0.000867
273.02 K, 2765.9 kPa, x1 = 0.6362	0.000591
273.03 K, 1883 kPa, x1 = 0.4162	0.000979
282.83 K, 2180.4 kPa, x1 = 0.2888	0.000829
282.84 K, 1790.6 kPa, x1 = 0.1116	0.001036
283 K, 1988.8 kPa, x1 = 0.4162	0.000979
283 K, 2957.6 kPa, x1 = 0.6362	0.000591
283.02 K, 2213.7 kPa, x1 = 0.563	0.000868
292.93 K, 3143.3 kPa, x1 = 0.6362	0.000591
293.06 K, 1887.6 kPa, x1 = 0.1116	0.001036
293.07 K, 2332 kPa, x1 = 0.563	0.000868
293.08 K, 2094.2 kPa, x1 = 0.4162	0.00098
298.02 K, 3235.8 kPa, x1 = 0.6362	0.000591
298.05 K, 1934.6 kPa, x1 = 0.1116	0.001037
298.08 K, 2145.4 kPa, x1 = 0.4162	0.00098
298.09 K, 2390.3 kPa, x1 = 0.563	0.000868
298.1 K, 2367.2 kPa, x1 = 0.2888	0.00083
308.02 K, 2027.4 kPa, x1 = 0.1116	0.001037
308.05 K, 3416.1 kPa, x1 = 0.6362	0.000592
308.06 K, 2246.6 kPa, x1 = 0.4162	0.000981
308.08 K, 2486.6 kPa, x1 = 0.2888	0.00083
308.42 K, 2509 kPa, x1 = 0.563	0.000869
317.83 K, 2615.8 kPa, x1 = 0.563	0.000869
318.02 K, 2345.8 kPa, x1 = 0.4162	0.000981
318.02 K, 2603.8 kPa, x1 = 0.2888	0.000831
318.03 K, 3592.6 kPa, x1 = 0.6362	0.000592
318.11 K, 2119.5 kPa, x1 = 0.1116	0.001037
328.1 K, 2210.6 kPa, x1 = 0.1116	0.001038
328.1 K, 2731.1 kPa, x1 = 0.563	0.000869
328.11 K, 2445.5 kPa, x1 = 0.4162	0.000981
328.12 K, 3768.5 kPa, x1 = 0.6362	0.000592
328.13 K, 2721.6 kPa, x1 = 0.2888	0.000831
338.08 K, 2300.2 kPa, x1 = 0.1116	0.001038
338.08 K, 2543.3 kPa, x1 = 0.4162	0.000982
338.08 K, 2836.1 kPa, x1 = 0.2888	0.000831
338.09 K, 2842.1 kPa, x1 = 0.563	0.00087
338.09 K, 3939.9 kPa, x1 = 0.6362	0.000592
348.06 K, 2388.8 kPa, x1 = 0.1116	0.001039
348.06 K, 2949.9 kPa, x1 = 0.2888	0.000832
348.06 K, 2951.9 kPa, x1 = 0.563	0.00087
348.07 K, 2640.2 kPa, x1 = 0.4162	0.000982
348.07 K, 4110.3 kPa, x1 = 0.6362	0.000593
358.03 K, 2476.8 kPa, x1 = 0.1116	0.001039
358.03 K, 3062.3 kPa, x1 = 0.2888	0.000832
358.04 K, 2736.3 kPa, x1 = 0.4162	0.000983
358.05 K, 3061.1 kPa, x1 = 0.563	0.00087
358.05 K, 4278.2 kPa, x1 = 0.6362	0.000593

CF [fluoromethane] + [N-]=[N+]=O
Other PVT measurement
Conditions	molar volume [m3/mol]
263.02 K, 2088.5 kPa, x2 = 0.6161	0.000766
263.03 K, 1936.1 kPa, x2 = 0.508	0.000863
267.98 K, 1999.2 kPa, x2 = 0.508	0.000863
268 K, 2048.2 kPa, x2 = 0.3047	0.00074
268 K, 2223.9 kPa, x2 = 0.6161	0.000766
272.89 K, 2060.3 kPa, x2 = 0.508	0.000863
272.98 K, 2295.8 kPa, x2 = 0.6161	0.000766
273.01 K, 2223.5 kPa, x2 = 0.3047	0.000741
273.05 K, 1878.4 kPa, x2 = 0.1467	0.000909
277.86 K, 2121 kPa, x2 = 0.508	0.000863
282.81 K, 2371.8 kPa, x2 = 0.3047	0.000741
282.83 K, 1994.7 kPa, x2 = 0.1467	0.000909
283.04 K, 2438 kPa, x2 = 0.6161	0.000767
287.8 K, 4359.8 kPa, x2 = 0.8263	0.000305
288.08 K, 2242.8 kPa, x2 = 0.508	0.000864
292.79 K, 2109.4 kPa, x2 = 0.1467	0.00091
292.93 K, 4761.6 kPa, x2 = 0.8263	0.000305
292.96 K, 2512.2 kPa, x2 = 0.3047	0.000741
293.07 K, 2574.6 kPa, x2 = 0.6161	0.000767
298.08 K, 2168.4 kPa, x2 = 0.1467	0.00091
298.09 K, 2358.5 kPa, x2 = 0.508	0.000864
298.11 K, 2642.6 kPa, x2 = 0.6161	0.000767
298.17 K, 2591.9 kPa, x2 = 0.3047	0.000741
302.97 K, 5179 kPa, x2 = 0.8263	0.000305
307.96 K, 5380.9 kPa, x2 = 0.8263	0.000305
308.05 K, 2279.3 kPa, x2 = 0.1467	0.00091
308.06 K, 2474.5 kPa, x2 = 0.508	0.000865
308.13 K, 2731.2 kPa, x2 = 0.3047	0.000742
308.15 K, 2774.9 kPa, x2 = 0.6161	0.000768
312.91 K, 5577.9 kPa, x2 = 0.8263	0.000305
318.05 K, 2388.7 kPa, x2 = 0.1467	0.000911
318.11 K, 2867.7 kPa, x2 = 0.3047	0.000742
318.12 K, 2588.2 kPa, x2 = 0.508	0.000865
318.12 K, 2904.6 kPa, x2 = 0.6161	0.000768
328.03 K, 2496.3 kPa, x2 = 0.1467	0.000911
328.09 K, 3033 kPa, x2 = 0.6161	0.000768
328.1 K, 3002.9 kPa, x2 = 0.3047	0.000742
328.11 K, 2699.9 kPa, x2 = 0.508	0.000865
338.08 K, 2810.2 kPa, x2 = 0.508	0.000866
338.08 K, 3160 kPa, x2 = 0.6161	0.000769
338.09 K, 2603.1 kPa, x2 = 0.1467	0.000912
338.09 K, 3135.8 kPa, x2 = 0.3047	0.000743
347.94 K, 2707 kPa, x2 = 0.1467	0.000912
348.05 K, 3285.8 kPa, x2 = 0.6161	0.000769
348.06 K, 2919.8 kPa, x2 = 0.508	0.000866
348.06 K, 3267 kPa, x2 = 0.3047	0.000743
354.94 K, 2779.9 kPa, x2 = 0.1467	0.000912
358.03 K, 3396.5 kPa, x2 = 0.3047	0.000743
358.03 K, 3410.5 kPa, x2 = 0.6161	0.000769
358.05 K, 3028.8 kPa, x2 = 0.508	0.000867

[N-]=[N+]=O [nitrous oxide] + FCF
Other PVT measurement
Conditions	molar volume [m3/mol]
283.32 K, 2978.6 kPa, x1 = 0.8042	0.000562
288.38 K, 3087.3 kPa, x1 = 0.8042	0.000562
293.46 K, 3188.3 kPa, x1 = 0.8042	0.000563
298.54 K, 2796 kPa, x1 = 0.5068	0.000644
298.6 K, 3286 kPa, x1 = 0.8042	0.000563
303.68 K, 2903.7 kPa, x1 = 0.5068	0.000644
303.68 K, 2988.3 kPa, x1 = 0.4207	0.000594
303.68 K, 3381.2 kPa, x1 = 0.8042	0.000563
308.76 K, 3475.8 kPa, x1 = 0.8042	0.000563
308.77 K, 2774.4 kPa, x1 = 0.2255	0.000631
308.77 K, 2991.7 kPa, x1 = 0.5068	0.000645
308.77 K, 3091.8 kPa, x1 = 0.4207	0.000594
313.85 K, 3190.6 kPa, x1 = 0.4207	0.000595
313.85 K, 3569.2 kPa, x1 = 0.8042	0.000563
313.86 K, 2875.7 kPa, x1 = 0.2255	0.000631
313.87 K, 3078.9 kPa, x1 = 0.5068	0.000645
318.94 K, 3288.2 kPa, x1 = 0.4207	0.000595
318.94 K, 3661.8 kPa, x1 = 0.8042	0.000563
318.95 K, 2971.2 kPa, x1 = 0.2255	0.000631
318.95 K, 3164.6 kPa, x1 = 0.5068	0.000645
324.03 K, 3384.5 kPa, x1 = 0.4207	0.000595
324.03 K, 3753.8 kPa, x1 = 0.8042	0.000563
324.04 K, 3064.8 kPa, x1 = 0.2255	0.000631
324.04 K, 3249.6 kPa, x1 = 0.5068	0.000645
329.13 K, 3157.2 kPa, x1 = 0.2255	0.000632
329.13 K, 3845.1 kPa, x1 = 0.8042	0.000563
329.14 K, 3334.1 kPa, x1 = 0.5068	0.000645
329.14 K, 3479.7 kPa, x1 = 0.4207	0.000595
334.22 K, 3248.1 kPa, x1 = 0.2255	0.000632
334.22 K, 3573.4 kPa, x1 = 0.4207	0.000595
334.23 K, 3417.4 kPa, x1 = 0.5068	0.000645
334.23 K, 3935.9 kPa, x1 = 0.8042	0.000564
339.33 K, 3338.3 kPa, x1 = 0.2255	0.000632
339.33 K, 3500 kPa, x1 = 0.5068	0.000645
339.34 K, 3666.5 kPa, x1 = 0.4207	0.000595
339.35 K, 4026.2 kPa, x1 = 0.8042	0.000564
344.43 K, 3581.9 kPa, x1 = 0.5068	0.000646
344.43 K, 3758.3 kPa, x1 = 0.4207	0.000595
344.43 K, 4115.4 kPa, x1 = 0.8042	0.000564
344.44 K, 3427.2 kPa, x1 = 0.2255	0.000632
353.6 K, 3922.3 kPa, x1 = 0.4207	0.000596
354.61 K, 3602.1 kPa, x1 = 0.2255	0.000632
354.62 K, 4293 kPa, x1 = 0.8042	0.000564
